Measurements reported in patent publication US8288394B2, “1-(1H-1,2,4-triazol-1-yl)butan-2-ol derivative for pharmaceutical use, and the use of a 1-(1H-1,2,4-triazol-1-yl)butan-2-ol derivative with substantially undefined crystal shape for preparing said 1-(1H-1,2,4-triazol-1-yl)butan-2-ol derivative” (Medichem, S.A., priority 2009, dated 2012).

Key:
Format in all cases: physicochemical
[1] = Particle size distribution, laser diffraction (Malvern Mastersizer S, wet); details: for Particle Size Distribution D10 / Particle Size Distribution D50 / Particle Size Distribution D90: by volume, mean of six; for D[3,2] (Sauter diameter, DMVS): mean diameter by surface area to volume; for Particle Size Distribution D[4,3]: mean diameter by volume
Description: The particle size parameters measured in the present invention have been obtained by means of laser light diffraction technique, and specifically by means of a Malvern Mastersizer S particle size analyzer having characteristics as set out below. Namely, the laser source used was a 2 milliwatt Helium/neon laser (633 nm wavelength); the detection system was a Fourier Transform lens system; the sample was run using a 2.40 mm lens; the sample unit was a sample unit for wet measurement, and particularly was a MS1-Small volume Sample Dispersion Unit stirred cell. The wet dispersion was prepared by using deionized water as a dispersant, and the dispersion was controlled by stirring the unit cell. […] The characterization parameters (volume distributions) were measured for at least six times for each sample, and the result is a mean of said measured values for each sample.
The sample was run using the 2.40 mm lens. The sample unit was a MS1-Small Volume Sample Dispersion Unit stirred cell. The dispersant was deionized water. The sample particle size distribution was assumed to follow a normal distribution.
Analysis model: polydisperse. Setup presentation: 3_WATERF. Particle R.I.=(1.6800, 0.01). Dispersant R.I.=1.33.
This sample was sonicated for 2 minutes and delivered dropwise to the previously background and corrected measuring cell filled with dispersant (deionized water) until the obscuration reached the desired level. Volume distributions were obtained for at least six measures. For characterization, the values of D10, D50 and D90 (by volume), D[4,3] (mean diameter by volume) and D[3,2] (mean diameter by surface area to volume, or Sauter diameter) were specifically listed, each one being the mean of the six values available for each characterization parameter.
The notation DX [also written as D(v, 0.X)] means that X % of the particles have a diameter less than a specified diameter D. Thus a D90 [or D(v, 0.9)] of 100 μm means that 90% of the particles have a diameter less than 100 μm.

[2] = Sphericity factor calculated from density, Sauter diameter and specific surface area
Description: Flowability affects the ease with which the material is handled during processing into a pharmaceutical product. When the flowability is poor, problems occur with handling and processing during formulation. It is known that the shape of a particle affects its handling and flow properties. However, quantification of particle shape is extremely difficult for irregular and/or micronized particles. One of the most common ways of expressing the degree of irregularity of the particles is by means of the sphericity factor (ΨW), which is generally defined as the ratio between the surface area of a sphere having the same volume as the particle and the surface area of the particle:
[formula] where dv and ds are the equivalent volume and surface diameter, respectively (Part. Part. Syst. Charact. 1996, 13, 368-373).
Because sphericity factors are not calculated for each particle but for an assembly of particles, they have to be based on an average size. Thus, the sphericity factor will then be given by the following equation:
[formula] where SW is the powder specific surface area, ρ is the particle density and DMVS is the surface area mean diameter, also referred to as the mean volume-surface diameter, the Sauter diameter or D[3,2]. The Sauter diameter is defined as the diameter of a sphere that has the same volume/surface area ratio as the particle of interest.
A sphericity factor of 1.0 describes a perfect sphere with the greatest ease of flow (Encapsulated and powdered foods, CRC Press 2005). […] In this regard, sphericity factor values below 0.2 are usually found for low-flowability solids in form of platelets or needles. Therefore, a sphericity factor greater than 0.2 generally indicates an acceptable flowing material.

[3] = BET specific surface area (Micromeritics Gemini V, N2 at 77 K); details: N2 adsorption at 77 K
Description: The specific surface area values disclosed in the present invention have been obtained by means of a specific surface area analysis technique based on the BET (Brunauer, Emmett and Teller) theory, which is a well-accepted theory known in the art for the calculation of surface areas of solids by means of measuring their physical adsorption of gas molecules (See S. Brunauer, P. H. Emmett and E. Teller, J. Am. Chem. Soc., 1938, 60, 309). In particular, the specific surface area values measured in the present invention have been calculated from the BET surface area plot obtained by measuring the quantity of nitrogen gas molecules adsorbed by a weighted amount of solid at different relative pressures (P/P0) within the range 0.05-0.3, at 77 K. Precisely, the measurement of the adsorption of gas molecules was carried out by means of a Micromeritics™ Gemini V equipment having the characteristics as set out below. Namely, the gas used for adsorption measure was nitrogen gas. […] The sample for analysis was degassed (at 30° C. for 10 minutes and at 80° C. for one hour). The determination of the adsorption of nitrogen was measured at 77 K and for twelve relative pressures sufficiently dispersed within in the range of 0.05 to 0.3. (i.e. twelve absolute pressures in the range of 38.425 mmHg to 230.000 mmHg relative to a saturated pressure of 764,480 mmHg).
The sample for analysis was degassed at 30° C. for 10 minutes and at 80° C. for one hour.

[4] = Particle density by pycnometry; details: pycnometry at 25° C., n-heptane, mean of three
Procedure: The particle density experimental values were obtained by means of a pycnometer, specifically a 50 mL glass pycnometer. The measurements were carried out under technical characteristics as set out below. Namely, the determinations were done at 25° C.; the liquid of reference was n-heptane; the measurements were carried out three times, and the result is the mean of said measured values.

[5] = calculated using the reported crystal density value
[6] = calculated using the measured particle density value
[7] = listed as prior art micronized voriconazole

In the case of `C[C@@H](c1ncncc1F)[C@](O)(Cn1cncn1)c1ccc(F)cc1F` [Example 7, voriconazole], the “Particle Size Distribution D10” value [1] is reported as 7.5 μm, the “Particle Size Distribution D50” value [1] is reported as 25.3 μm and the “Particle Size Distribution D90” value [1] is reported as 57.4 μm. For the same compound, the “D[3,2] (Sauter diameter, DMVS)” value [1] was 14.3 μm, the “Particle Size Distribution D[4,3]” value [1] was 24.9 μm and the “sphericity factor Ψw” value [2, 5] was 0.26. The “Specific Surface Area (BET), Sw” value [3] was 1.1032 m^2/g.
With `C[C@@H](c1ncncc1F)[C@](O)(Cn1cncn1)c1ccc(F)cc1F` [Example 5, voriconazole] the “Particle Size Distribution D10” value [1] was 7.6 μm, the “Particle Size Distribution D50” value [1] was 32.3 μm and the “Particle Size Distribution D90” value [1] was 92.7 μm. For the same compound, the “D[3,2] (Sauter diameter, DMVS)” value [1] was 15.8 μm, the “Particle Size Distribution D[4,3]” value [1] was 42.8 μm and the “sphericity factor Ψw” value [2, 6] was 0.24. The “sphericity factor Ψw” value [2, 5] was 0.23, the “Specific Surface Area (BET), Sw” value [3] was 1.1451 m^2/g and the “Density (experimental particle density ρ)” value (from here on “Density”) [4] was 1.37 g/mL.
For `C[C@@H](c1ncncc1F)[C@](O)(Cn1cncn1)c1ccc(F)cc1F` [Example 2, voriconazole], the “Particle Size Distribution D10” value [1] was 7.4 μm, the “Particle Size Distribution D50” value [1] was 29.7 μm and the “Particle Size Distribution D90” value [1] was 102.8 μm. For the same compound, the “D[3,2] (Sauter diameter, DMVS)” value [1] was 15.4 μm, the “Particle Size Distribution D[4,3]” value [1] was 44.5 μm and the “sphericity factor Ψw” value [2, 6] was 0.31. The “sphericity factor Ψw” value [2, 5] was 0.29, the “Specific Surface Area (BET), Sw” value [3] was 0.9319 m^2/g and the “Density” value [4] was 1.35 g/mL.
In the case of `C[C@@H](c1ncncc1F)[C@](O)(Cn1cncn1)c1ccc(F)cc1F` [Example 3, voriconazole], the “Particle Size Distribution D10” value [1] is reported as 6.0 μm, the “Particle Size Distribution D50” value [1] is reported as 21.7 μm and the “Particle Size Distribution D90” value [1] is reported as 56.2 μm. For the same compound, the “D[3,2] (Sauter diameter, DMVS)” value [1] was 12.2 μm, the “Particle Size Distribution D[4,3]” value [1] was 27.3 μm and the “sphericity factor Ψw” value [2, 6] was 0.34. For the same compound, the “sphericity factor Ψw” value [2, 5] was 0.31, the “Specific Surface Area (BET), Sw” value [3] was 1.0997 m^2/g and the “Density” value [4] was 1.33 g/mL.
In the case of `C[C@@H](c1ncncc1F)[C@](O)(Cn1cncn1)c1ccc(F)cc1F` [Comparative Example 2, voriconazole, reference compound], the “Particle Size Distribution D50” value [1] is reported as 15.2 μm, the “D[3,2] (Sauter diameter, DMVS)” value [1] is reported as 8.3 μm and the “D[3,2] (Sauter diameter, DMVS)” value [1, 7] is reported as “about 8.3 μm”. For the same compound, the “Particle Size Distribution D[4,3]” value [1] was 28.7 μm, the “Density” value [4] was 1.40 g/mL and the “Density” value [4, 7] was “about 1.400 g/cm^3”.
In the case of `C[C@@H](c1ncncc1F)[C@](O)(Cn1cncn1)c1ccc(F)cc1F` [Example 6, voriconazole], the “Particle Size Distribution D10” value [1] is reported as 8.6 μm, the “Particle Size Distribution D50” value [1] is reported as 33.4 μm and the “Particle Size Distribution D90” value [1] is reported as 92.3 μm. For the same compound, the “D[3,2] (Sauter diameter, DMVS)” value [1] was 17.2 μm, the “Particle Size Distribution D[4,3]” value [1] was 43.3 μm and the “sphericity factor Ψw” value [2, 6] was 0.25. The “sphericity factor Ψw” value [2, 5] was 0.23, the “Specific Surface Area (BET), Sw” value [3] was 0.9769 m^2/g and the “Density” value [4] was 1.40 g/mL.
In the case of `C[C@@H](c1ncncc1F)[C@](O)(Cn1cncn1)c1ccc(F)cc1F` [Example 4, voriconazole], the “Particle Size Distribution D10” value [1] is reported as 6.0 μm, the “Particle Size Distribution D50” value [1] is reported as 22.4 μm and the “Particle Size Distribution D90” value [1] is reported as 64.0 μm. The “D[3,2] (Sauter diameter, DMVS)” value [1] was 12.3 μm, the “Particle Size Distribution D[4,3]” value [1] was 30.3 μm and the “sphericity factor Ψw” value [2, 6] was 0.34. For the same compound, the “sphericity factor Ψw” value [2, 5] was 0.31, the “Specific Surface Area (BET), Sw” value [3] was 1.0992 m^2/g and the “Density” value [4] was 1.32 g/mL.
With `C[C@@H](c1ncncc1F)[C@](O)(Cn1cncn1)c1ccc(F)cc1F` [Example 8, voriconazole] the “Particle Size Distribution D10” value [1] was 2.5 μm, the “Particle Size Distribution D50” value [1] was 7.3 μm and the “Particle Size Distribution D90” value [1] was 29.9 μm. For the same compound, the “D[3,2] (Sauter diameter, DMVS)” value [1] was 5.2 μm, the “Particle Size Distribution D[4,3]” value [1] was 14.2 μm and the “sphericity factor Ψw” value [2, 5] was 0.50. For the same compound, the “Specific Surface Area (BET), Sw” value [3] was 1.5910 m^2/g.
